# Test results taken from PubChem BioAssay AID248 (DTP/NCI, 2004).
# “And” between values parts separate entries of the source, which are not always exact repeats. Identical values can stand only once. Toxic doses and inconclusive results are not listed.
# Test system: L1210 leukemia ip in BDF1 mice, survival T/C
# Assay: NCI In Vivo Anticancer Drug Screen. Data for tumor model L1210 Leukemia (intraperitoneal) in B6D2F1 (BDF1) mice
# Conditions: endpoint: mean survival time, higher = longer survival
# In short: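 Antitumor effect is assessed in tumor-bearing animals. Survival in the compound arm is compared with a vehicle-dosed control arm and expressed as their quotient.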
# [1] = dose: 50.0 mg/kg/injection, schedule: Q01DX009 (ip), vehicle: saline with Tween-80
# [2] = dose: 100.0 mg/kg/injection, schedule: Q01DX009 (ip), vehicle: saline with Tween-80
# [3] = dose: 200.0 mg/kg/injection, schedule: Q01DX009 (ip), vehicle: saline with Tween-80
# [4] = dose: 100.0 mg/kg/injection, schedule: Q04DX003 (ip), vehicle: saline with Tween-80
# [5] = dose: 200.0 mg/kg/injection, schedule: Q04DX003 (ip), vehicle: saline with Tween-80
# [6] = dose: 400.0 mg/kg/injection, schedule: Q01DX009 (ip), vehicle: saline with Tween-80
# [7] = dose: 400.0 mg/kg/injection, schedule: Q04DX003 (ip), vehicle: saline with Tween-80
# [8] = dose: 100.0 mg/kg/injection, schedule: Q04DX002 (ip), vehicle: saline with Tween-80
# [9] = dose: 400.0 mg/kg/injection, schedule: Q01DX001 (ip), vehicle: carboxymethylcellulose (CMC)
# [10] = dose: 100.0 mg/kg/injection, schedule: Q01DX001 (ip), vehicle: carboxymethylcellulose (CMC)
# [11] = dose: 200.0 mg/kg/injection, schedule: Q01DX001 (ip), vehicle: carboxymethylcellulose (CMC)
smiles,measurement,setting,value
Cc1cccc(C)c1NC(=O)OCCOc1ccc(Cl)cc1Cl,T/C,[1],90 % of control
same,T/C,[2],95 % of control
same,T/C,[3],95 % of control
NC(=O)CCC(N)C(=O)O (stereo not given),T/C,"dose: 6.25 mg/kg/injection, schedule: Q01DX009 (ip), vehicle: saline",108 % of control
same,T/C,[2],97 % of control
same,T/C,[4],94 % of control
same,T/C,[3],90 % of control
same,T/C,[5],93 % of control
same,T/C,[6],93 % of control
same,T/C,[7],96 % of control
Clc1ccc(CSSCc2ccc(Cl)cc2Cl)c(Cl)c1,T/C,"dose: 100.0 mg/kg/injection, schedule: Q04DX002 (ip), vehicle: gum acacia",95 % of control
same,T/C,"dose: 200.0 mg/kg/injection, schedule: Q04DX002 (ip), vehicle: gum acacia",116 % of control
same,T/C,"dose: 400.0 mg/kg/injection, schedule: Q04DX002 (ip), vehicle: gum acacia",100 % of control
O=C(Cc1cnccn1)c1ccc(C(=O)Cc2cnccn2)cc1,T/C,"dose: 100.0 mg/kg/injection, schedule: Q04DX003 (ip), vehicle: carboxymethylcellulose (CMC)",94 % of control
same,T/C,"dose: 200.0 mg/kg/injection, schedule: Q04DX003 (ip), vehicle: carboxymethylcellulose (CMC)",103 % of control
same,T/C,"dose: 400.0 mg/kg/injection, schedule: Q04DX003 (ip), vehicle: carboxymethylcellulose (CMC)",102 % of control
CCCCCC(=O)Oc1c(C(C)(C)C)cc([N+](=O)[O-])c(C)c1[N+](=O)[O-],T/C,"dose: 100.0 mg/kg/injection, schedule: Q04DX002 (ip), vehicle: saline",93 % of control
same,T/C,"dose: 200.0 mg/kg/injection, schedule: Q04DX002 (ip), vehicle: saline",93 % of control
O=C(CC(O)(C(F)(F)Cl)C(F)(F)Cl)c1cccc([N+](=O)[O-])c1,T/C,[1],98 % of control
same,T/C,"dose: 50.0 mg/kg/injection, schedule: Q04DX003 (ip), vehicle: saline with Tween-80",98 % of control
same,T/C,[2],98 % of control
same,T/C,[4],98 % of control
same,T/C,[3],95 % of control
same,T/C,[5],98 % of control
same,T/C,[7],89 % of control
CCCCCCCCCCCCCCCCOc1ccc(C(=O)Nc2ccc(S(=O)(=O)Nc3cccc4ccccc34)cc2)cc1S(=O)(=O)F,T/C,"dose: 100.0 mg/kg/injection, schedule: Q04DX003 (ip), vehicle: Klucel (hydroxypropylcellulose) (HPC)",102 % of control
same,T/C,"dose: 200.0 mg/kg/injection, schedule: Q04DX003 (ip), vehicle: Klucel (hydroxypropylcellulose) (HPC)",100 % of control
same,T/C,"dose: 400.0 mg/kg/injection, schedule: Q04DX003 (ip), vehicle: Klucel (hydroxypropylcellulose) (HPC)",93 % of control
Oc1ccc(Cl)cc1C(c1cc(Cl)ccc1O)C(Cl)(Cl)Cl,T/C,"dose: 100.0 mg/kg/injection, schedule: Q04DX002 (ip), vehicle: saline + alcohol",99 % of control
same,T/C,"dose: 200.0 mg/kg/injection, schedule: Q04DX002 (ip), vehicle: saline + alcohol",108 % of control
same,T/C,"dose: 400.0 mg/kg/injection, schedule: Q04DX002 (ip), vehicle: saline + alcohol",102 % of control
CC1=C/C(=N\N2CCOCC2)C(C(O)(C(F)(F)F)C(F)(F)F)C(C)(C)C1 (stereo not given),T/C,"dose: 100.0 mg/kg/injection, schedule: Q04DX003 (ip), vehicle: saline",98 % of control
same,T/C,"dose: 200.0 mg/kg/injection, schedule: Q04DX003 (ip), vehicle: saline",98 % of control
same,T/C,"dose: 400.0 mg/kg/injection, schedule: Q04DX003 (ip), vehicle: saline",96 % of control
COc1ccc(OCC(O)CN2CCN(c3ccc(Cl)cc3)CC2)cc1 (stereo not given),T/C,[4],93 % of control
same,T/C,[5],90 % of control
same,T/C,[7],98 % of control
CN=C(NCCc1ccccc1)c1ccc(NC(=O)c2ccc(C(=O)Nc3ccc(C(=NC)NCCc4ccccc4)cc3)cc2)cc1,T/C,"dose: 3.75 mg/kg/injection, schedule: Q01DX Z (ip), vehicle: saline",102 % of control
same,T/C,"dose: 7.5 mg/kg/injection, schedule: Q01DX Z (ip), vehicle: saline",105 % of control
CCN(CCNC(=O)NC(C)(C)C)c1ccccc1,T/C,[2],115 % of control and 91 % of control
same,T/C,[8],96 % of control and 100 % of control
same,T/C,[4],97 % of control
same,T/C,[3],97 % of control and 91 % of control
same,T/C,"dose: 200.0 mg/kg/injection, schedule: Q04DX002 (ip), vehicle: saline with Tween-80",96 % of control and 97 % of control
same,T/C,[5],106 % of control
same,T/C,[6],97 % of control and 88 % of control
same,T/C,"dose: 400.0 mg/kg/injection, schedule: Q04DX002 (ip), vehicle: saline with Tween-80",94 % of control and 89 % of control
same,T/C,[7],92 % of control
NC(CSS(=O)(=O)O)=NCCCCc1ccccc1,T/C,"dose: 12.5 mg/kg/injection, schedule: Q04DX002 (ip), vehicle: Klucel (hydroxypropylcellulose) (HPC)",91 % of control
same,T/C,"dose: 25.0 mg/kg/injection, schedule: Q04DX002 (ip), vehicle: Klucel (hydroxypropylcellulose) (HPC)",102 % of control
Cc1ccc(NC(=O)N(CCI)N=O)cc1,T/C,"dose: 17.0 mg/kg/injection, schedule: Q01DX015 (ip), vehicle: carboxymethylcellulose (CMC)",110 % of control
same,T/C,"dose: 58.0 mg/kg/injection, schedule: Q01DX015 (ip), vehicle: carboxymethylcellulose (CMC)",161 % of control
same,T/C,"dose: 88.0 mg/kg/injection, schedule: Q01DX015 (ip), vehicle: carboxymethylcellulose (CMC)",157 % of control
same,T/C,"dose: 133.0 mg/kg/injection, schedule: Q01DX015 (ip), vehicle: carboxymethylcellulose (CMC)",92 % of control
same,T/C,"dose: 177.0 mg/kg/injection, schedule: Q01DX001 (ip), vehicle: carboxymethylcellulose (CMC)",121 % of control
same,T/C,"dose: 200.0 mg/kg/injection, schedule: Q01DX015 (ip), vehicle: carboxymethylcellulose (CMC)",111 % of control and 113 % of control
same,T/C,[9],159 % of control
O=C(CCl)Nc1ccc([N+](=O)[O-])cc1,T/C,"dose: 25.0 mg/kg/injection, schedule: Q04DX002 (ip), vehicle: saline with Tween-80",103 % of control
same,T/C,"dose: 50.0 mg/kg/injection, schedule: Q04DX002 (ip), vehicle: saline with Tween-80",93 % of control
same,T/C,[8],97 % of control
Cn1c(=O)c2[nH]c(CCCc3nc4c([nH]3)c(=O)n(C)c(=O)n4C)nc2n(C)c1=O,T/C,"dose: 25.0 mg/kg/injection, schedule: Q01DX001 (ip), vehicle: carboxymethylcellulose (CMC)",93 % of control
same,T/C,"dose: 50.0 mg/kg/injection, schedule: Q01DX001 (ip), vehicle: carboxymethylcellulose (CMC)",105 % of control
same,T/C,[10],98 % of control
same,T/C,[11],101 % of control
CCCCCCCCCCCNC(=O)CCl,T/C,"dose: 75.0 mg/kg/injection, schedule: Q04DX003 (ip), vehicle: Klucel (hydroxypropylcellulose) (HPC)",91 % of control
same,T/C,"dose: 150.0 mg/kg/injection, schedule: Q04DX003 (ip), vehicle: Klucel (hydroxypropylcellulose) (HPC)",92 % of control
same,T/C,"dose: 300.0 mg/kg/injection, schedule: Q04DX003 (ip), vehicle: Klucel (hydroxypropylcellulose) (HPC)",89 % of control
CCOC(=O)C1(CCOC(C)=O)CCCCC1=O (stereo not given),T/C,[10],93 % of control
same,T/C,[11],93 % of control
same,T/C,[9],102 % of control
